Experimental data taken from US20030143228A1, “Human telomerase reverse transcriptase as a class-II restricted tumor-associated antigen” (Baylor College of Medicine, priority 2001, published 2003).
Ends that are not written are not given here. code X = not defined here

Tested on: HLA-DR4 transgenic mice
Assay: hTRT766 immunization of HLA-DR4 transgenic mice, IFN-γ ELISPOT of splenocytes
Type: in vivo
Method: IFN-γ ELISPOT assay was used to analyze peptide-specific T cell responses by determining the frequency of Th precursors specific for the peptide. Mice were sacrificed […] after the last immunization and splenocytes were obtained for assessing IFN-γ production.
Briefly, 96-well MultiScreen-IP plates (Millipore Corporation, Bedford, Mass.) were coated with 100 ul/well capture mAb against mouse IFN-γ (AN-18, Mabtech Inc, Cincinnati, Ohio) at a concentration of 10 μg/ml and incubated overnight at 4° C. The plates were washed 4 times with PBS, then blocked with RPMI 1640 plus 10% FBS for 2 hours at 37° C. After washing, freshly isolated splenocytes were plated at 2×10^5cells/well in RPMI 1640 with 10% FBS, in the presence or absence of peptide hTRT766 (20 μg/ml), recombinant hTRT proteins (20 μg/ml) or hTRT-positive NA-6-Mel (ATCC) tumor lysates (50 ul/well). Tumor cell lysates were prepared by three freeze-thaw cycles of 5×10^7 tumor cells resuspended in 5 ml of RPMI 1640 with 10% FBS. Then the cells were centrifuged at 15,000 g for 30 minutes at 4° C. Supernatant was recovered, aliquoted and stored at −80° C. for later use, as described previously [Schroers, 2002 #116]. After 20 hours of cell culture in the incubator, the cells were removed by washing 3 times with PBS and 4 times with PBS/Tween20 (0.05%). Biotinylated anti-mouse IFN-γ antibody (R4-6A2, Mabtech Inc, Cincinnati, Ohio), diluted to 1 μg/ml in PBS/Tween20 containing 0.5% bovine serum albumin, was added and incubated for 2 hours at 37° C. The plates were then washed 6 times with PBS/Tween20 (0.05%) and subsequently avidin-peroxidase-complex (Vector Laboratories, Burlingame, Calif.) was added and incubated for 1 hour at room temperature, and removed by washing 3 times with PBS and PBS/Tween20 (0.05%). The color of the plates was developed by adding HRP substrate 3-amino-9-ethylcarbozole (Sigma, St. Louis, Mo.). The plates were then washed with tap water, and air dried in dark. The plates were evaluated using an automated ELISPOT reader (Zellnet Consulting Inc, New York, N.Y.).
To further assess the therapeutic potential of hTRT766, HLA-DR4 transgenic mice (Congia, 1998; Sonderstrup, 1998; Sonderstrup, 1999) were used to determine whether immunization with the peptide induces a CD4+ Th response specific not only for the peptide, but also for the hTRT protein.
Briefly, human HLA DR4 transgenic mice (HLA-DRB1*0401), which are murine class II-deficient and transduced with human CD4 molecule, were generated. [Congia, 1998; Sonderstrup, 1998; Sonderstrup, 1999). The transgenic mice were successfully used to identify human class-II-restricted epitopes and to study immune responses (Congia, 1998; Sonderstrup, 1998; Sonderstrup, 1999; Geluk, 1998). HLA DR4 expression on the transgenic mice was analyzed by flow cytometry. Male DR4 transgenic mice 6- to 10-week-old were used for experiment. The transgenic mice were immunized twice at one week interval with 100 μg of hTRT766 peptide emulsified in complete Freunds adjuvant (CFA) (final volume, 100 μl) and administered subcutaneously (s.c.) into the rear back. Control group mice were injected with phosphate-buffered saline (PBS) emulsified in CFA.
The spleen cells were isolated and stained with FITC-conjugated mouse anti-human HLA-DR, PE-conjugated mouse anti-human CD4 or FITC-conjugated rat anti-mouse CD4 (BD PharMingen, San Diego, Calif.). Flow cytometric analysis determined that these transgenic mice were human HLA-DR, CD4 positive and mouse CD4 negative. Ten days after the last immunization, the transgenic mice were sacrificed and the responses of their splenocytes to peptides, recombinant hTRT protein and hTRT-positive tumor cell were examined by using IFN-γ ELISPOT assays. The splenocytes of hTRT766-immunized mice responded strongly to the hTRT766 stimulation, producing IFN-γ at a frequency of 72 spots per million of splenocytes (medium control, 10/106). […]

In the case of “XLTDLQPYMRQFVAHL ({code X}-LTDLQPYMRQFVAHL; not fully specified; reading uncertain) [hTRT766]”, the “response of splenocytes of immunized mice to irrelevant peptide hTRT854” value (100 μg peptide in CFA s.c. twice, IFN-γ ELISPOT) is reported as “did not respond”, the “IFN-γ ELISPOT frequency of splenocytes of immunized mice” value (“IFN-γ ELISPOT frequency” below) (100 μg peptide in CFA s.c. twice, restimulated with hTRT766 peptide 20 μg/ml) is reported as 72 spots per million of splenocytes and the “IFN-γ ELISPOT frequency” value (restimulated with recombinant hTRT protein 20 μg/ml) is reported as 41 spots per million cells. For the same sequence, the “IFN-γ ELISPOT frequency” value (stimulated with hTRT-negative GM847 tumor lysates, background frequency) was 10/106, the “IFN-γ ELISPOT frequency” value (stimulated with hTRT-positive NA-6-Mel cell lysates) was 38 spots per million cells and the “IFN-γ ELISPOT frequency” value (stimulated with irrelevant CEA-Fc proteins, background frequency) was 10/106.
